Results published in PubChem BioAssay (NCI).
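Values below derive from 48-hour exposures of cells grown in 96-well plates, with endpoints linearly interpolated between the two concentrations bracketing the appropriate inhibition level. TGI denotes the concentration required for complete inhibition of growth.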

How the values were obtained:
Experiment in all cases: inhibition of tumour cell growth, NCI panel, 48 h
RPMI-8226 leukemia = test system: RPMI-8226 leukemia
OVCAR-4 ovarian = test system: OVCAR-4 ovarian
K-562 leukemia = test system: K-562 leukemia
NCI-H460 lung = test system: NCI-H460 lung
HOP-92 NSCLC = test system: HOP-92 NSCLC
COLO 205 colon = test system: COLO 205 colon
SF-268 CNS = test system: SF-268 CNS
SF-539 CNS = test system: SF-539 CNS
786-0 renal = test system: 786-0 renal
NCI-H522 lung = test system: NCI-H522 lung
NCI/ADR-RES ovarian = test system: NCI/ADR-RES ovarian
SK-MEL-5 melanoma = test system: SK-MEL-5 melanoma
DU-145 prostate = test system: DU-145 prostate

Row | Compound | TGI (RPMI-8226 leukemia) | TGI (OVCAR-4 ovarian) | TGI (K-562 leukemia) | TGI (NCI-H460 lung) | TGI (HOP-92 NSCLC) | TGI (COLO 205 colon) | TGI (SF-268 CNS) | TGI (SF-539 CNS) | TGI (786-0 renal) | TGI (NCI-H522 lung) | TGI (NCI/ADR-RES ovarian) | TGI (SK-MEL-5 melanoma) | TGI (DU-145 prostate)
1 | OC1(c2cccs2)c2cccc(Cl)c2C(O)(c2cccs2)c2c(Cl)cccc21 (stereo not given) | > 100 µM | > 100 µM | > 100 µM | > 100 µM | > 100 µM | > 100 µM | 75 µM | > 100 µM | > 100 µM | > 100 µM | > 100 µM | > 100 µM | > 100 µM
2 | Cn1c2ccccc2c2c(-c3ccccc3)cc3c(c21)C(=O)C=CC3=O | 4.8 µM | 5.75 µM | > 3.46 µM | > 10 µM | 3.78 µM | 2.05 µM | > 9.19 µM | 4.29 µM | 2.99 µM | 2.74 µM | > 9.15 µM | > 9.24 µM | > 10 µM
3 | O=C1CCC2C(O)c3cc4c(cc3C(c3ccc5c(c3)OCO5)N12)OCO4 (stereo not given) | > 100 µM | > 100 µM | > 100 µM | > 100 µM | 66.8 µM | > 100 µM | 52.5 µM | > 100 µM | > 100 µM | > 100 µM | > 100 µM | > 100 µM | > 100 µM
4 | C=CCN1C(=O)/C(=C/c2ccc(OC)cc2)N=C1SC/C=C/C | > 100 µM | > 100 µM | > 100 µM | > 100 µM | 93.8 µM | > 100 µM | > 100 µM | > 100 µM | > 100 µM | > 100 µM | > 100 µM | 39.4 µM | > 100 µM
5 | Cc1ccc2c(c1)[nH]c(=S)n2/C=C1\C(=O)Oc2ccccc2C1=O | > 100 µM | > 100 µM | > 100 µM | > 100 µM | 71.5 µM | > 100 µM | > 100 µM | > 100 µM | > 100 µM | > 100 µM | > 100 µM | > 100 µM | > 100 µM
6 | CNc1ncnc2c1ncn2C1C=CC(COS(N)(=O)=O)C1 (stereo not given) | > 100 µM | > 100 µM | > 100 µM | > 100 µM | > 100 µM | > 100 µM | > 100 µM | > 100 µM | > 100 µM | > 100 µM | > 100 µM | > 100 µM | > 100 µM
7 | COC(=O)[C@@H]1CN(C(C)=O)C(=O)N1 | > 100 µM | > 100 µM | > 100 µM | > 100 µM | > 100 µM | > 100 µM | > 100 µM | > 100 µM | > 100 µM | > 100 µM | > 100 µM | > 100 µM | > 100 µM
8 | COc1cc(O)c2c(=O)cc(-c3ccc(O)cc3O)oc2c1CC=C(C)C | > 100 µM | 28.5 µM | > 100 µM | 27.7 µM | 35.7 µM | 26.7 µM | 63.4 µM | 34.7 µM | > 100 µM | 33.6 µM | > 100 µM | 47.9 µM | > 100 µM
9 | Nc1ncnn2c(C3OC(CO)C(O)C3O)ccc12 (stereo not given) | 0.467 µM | 0.582 µM | 0.569 µM | 0.918 µM | 0.431 µM | 0.762 µM | 1.99 µM | 0.403 µM | 0.807 µM | 1.97 µM | 2.27 µM | 0.527 µM | 0.74 µM
10 | COC1(OC)c2no[n+]([O-])c2CCC1O (stereo not given) | > 100 µM | > 100 µM | > 100 µM | > 100 µM | > 100 µM | > 100 µM | > 100 µM | > 100 µM | > 100 µM | > 100 µM | > 100 µM | > 100 µM | > 100 µM
11 | Cc1nc2ccccc2n1COC(Cn1ccnc1)c1ccc(Cl)cc1Cl (stereo not given) | > 100 µM | > 100 µM | > 100 µM | 46.4 µM | 77.6 µM | > 100 µM | > 100 µM | > 100 µM | > 100 µM | > 100 µM | > 100 µM | 53.5 µM | > 100 µM
12 | COCCOC(=O)c1c(C)n([O-])c2cc(Cl)c(Cl)cc2[n+]1=O | 18.8 µM | 30.8 µM | 34.7 µM | 25.9 µM | 25.3 µM | 25 µM | 59.1 µM | 51.1 µM | 85.1 µM | 54.6 µM | 27.4 µM | 21.6 µM | 25.8 µM
13 | O=C(CN1CCCCC1)Nc1ccc2sc3ccccc3c(=O)c2n1 | 45.1 µM | > 100 µM | 52.3 µM | 36.5 µM | 30 µM | 28.3 µM | 74.3 µM | 31.6 µM | 37.2 µM | 23.1 µM | 36.1 µM | 36.1 µM | > 100 µM
14 | CSc1nc(C#N)c(/N=C\N(C)C)n1C | > 100 µM | > 100 µM | > 100 µM | > 100 µM | > 100 µM | > 100 µM | > 100 µM | > 100 µM | > 100 µM | > 100 µM | > 100 µM | > 100 µM | > 100 µM
15 | CC1=NN(C(=O)c2ccccc2O)C(=O)/C1=C/c1ccco1 | > 92.6 µM | > 84.8 µM | > 100 µM | > 60.5 µM | > 71.4 µM | > 63.8 µM | > 100 µM | 10.7 µM | > 100 µM | 37.7 µM | 85.3 µM | 9.19 µM | > 100 µM
